Assay results as given in patent US20240139142A1, “METHOD FOR PREVENTING OR TREATING LIVER DISEASE” (priority 2022, published 2024).

Tests used:
[1] = system: liver hepatocellular carcinoma cell line with Nexavar drug resistance; test: Protein expression and apoptosis in drug-resistant cell line; format: cell-based
Source text: WT: wild-type liver hepatocellular carcinoma cell line. R: Nexavar-drug resistance-liver hepatocellular carcinoma cell line.
After treating liver hepatocellular carcinoma cell line with Nexavar drug resistance by PCH1130 or PCH1152, the expressions of molecules such as USP22, ABCC1, ABCC2 and Twist in liver hepatocellular carcinoma may be decreased, and the expressions of cleaved Caspase-8 and PARP may be increased, which induced the apoptosis of liver hepatocellular carcinoma cells.

[2] = Safety test, median lethal dose (LD50), intravenous injection; format: in vivo; conditions: in vivo, mouse
Description: (§1) The mouse xenograft model of liver hepatocellular carcinoma was administered with different concentrations of PCH1152 or P1130 via intravenous injection, and the median lethal dose (LD50) was calculated by the number of death and dosage.

[3] = system: mouse xenograft model of liver hepatocellular carcinoma; test: as above; format: in vivo
Description: as §1

[4] = system: Mahlavu liver hepatocellular carcinoma cell line; test: Expression of ABCC2, Twist and Mcl-1 after treatment; format: cell-based; conditions: 2.5 μM, 64 hours
Source text: (§2) The process of trans-differentiating epithelial cells into motile mesenchymal cells is called epithelial-mesenchymal transition (EMT). EMT is indispensable in development, wound healing and stem cell behavior, and may induce fibrosis and carcinogenesis pathologically. In addition, EMT plays an important role in liver fibrosis, liver cirrhosis and liver hepatocellular carcinoma. […] Moreover, EMT may increase the anti-apoptosis effect, which will result in the development of drug resistance in cancer treatment, and induce the development of stemness of the cancer cells, as well as increase the number of cancer stem cells. The cancer stem cell is one of the important factors in the progression, recurrence, metastasis and drug resistance of the cancer. There is an evidence that in the samples of the liver hepatocellular carcinoma patients with poor prognosis, the overexpressions of Twist and Snail were observed. […] The results above represent that isothiocyanate structural modified compound of the present disclosure may prevent liver carcinogenesis and the growth, invasion, metastasis, progression and recurrence of liver hepatocellular carcinoma via inhibiting epithelial-mesenchymal transition, anti-apoptosis and/or inhibiting drug resistance.

[5] = system: SNU-449 liver hepatocellular carcinoma cell line; test: as above; format: cell-based; conditions: 2.5 μM, 64 hours
Source text: as §2

[6] = system: hepatic lipid accumulation and fibrosis in HBV transgenic mouse liver; test: Oil Red and Sirius Red staining of liver tissue; format: in vivo; conditions: treated mice without liver hepatocellular carcinoma vs control group
[7] = system: liver hepatocellular carcinoma cell line Mahlavu; test: MTS analysis, growth inhibition (GI50); format: cell-based; conditions: read-out: GI50, Mahlavu liver hepatocellular carcinoma cell line
[8] = system: Hepatitis B virus-induced ROS in Huh-7 cells; test: Removal of HBV-induced ROS, DHE fluorescence; format: cell-based, human; conditions: Huh-7 transfected with pGEM C12, 5 μM PCH1152, 10 μM NAC
Description: To examine the effect of PCH1152, NAC or the combination thereof on removing HBV-induced ROS, the Huh-7 cells were remained untreated, or treated with 5 μM PCH1152, 10 μM NAC or 5 μM PCH 1152 plus 10 μM NAC. The ROS was examined by DHE fluorescence, and the difference between each group was compared by Tukey's Multiple Comparison Test.

[9] = format: physicochemical; conditions: after 16 days
[10] = system: SNU-449 liver hepatocellular carcinoma cell line; test: Western blot, apoptosis and ABCC2/Mcl-1/Twist expression; format: cell-based; conditions: low concentration
[11] = system: liver tumor in Hepatitis B virus (HBV) transgenic mouse; format: in vivo
Description: To examine the incidence rate of mouse liver tumor under long-term PCH1152 administration, PCH1152 was added into the drinking water of the mice when the mice were three-month-old, and the drinking water was replaced every 7 to 14 days. The termination of the experiment was set at 19 months, and the blood of the mice started to be collected every 2 to 3 months when the mice were 9-month-old, and the ALT values of the serum were measured. When the ALT of the serum were higher than 150 U/L twice in a row, the mice were sacrificed and the developments of the liver tumors thereof were observed.

[12] = system: human normal liver cell line THLE-2; test: Western blot, apoptosis and ABCC2/Mcl-1/Twist expression; format: cell-based; conditions: low concentration
[13] = system: Antimycin A-induced ROS in LX-2 cells; test: Removal of Antimycin A-induced ROS, DHE fluorescence; format: cell-based; conditions: 2.5 μM PCH1152, 24 hours
Source text: ROS was examined by DHE fluorescence, and the difference between each group was compared by Tukey's Multiple Comparison Test.

[14] = system: liver hepatocellular carcinoma cell line SNU-449; test: MTS analysis, growth inhibition (GI50); format: cell-based
[15] = system: SNU-449 liver hepatocellular carcinoma cell line; test: Western blot of apoptosis markers (cleaved caspase 8, cleaved PARP); format: cell-based; conditions: 0.3 μM, 0, 24, 48 and 72 hours
Description: SNU-449 liver hepatocellular carcinoma cell line was treated by 0.3 μM isothiocyanate structural modified compounds P1130 and PCH1152, and natural isothiocyanate compound PEITC, and the control group was treated by DSMO. After extracting the proteins in the cells at different time points, such as 0, 24, 48 and 72 hours, analysis and comparison were performed by using western blot. […] The results represent that the two structural modified compounds described above effectively promoted the apoptosis of the liver hepatocellular carcinoma cells (FIG. 1).

[16] = system: P62 and LC3B in HBV transgenic mouse liver tissue; test: Autophagy markers in liver tissue, western blot; format: in vivo
Description: The liver tissues of the mice with or without liver hepatocellular carcinoma in the example 7 were analyzed by western blot (FIG. 8A), and quantitative analysis was performed via Image J software (FIG. 8B). P62 protein accumulated in the cells when the autophagy was forbidden, and it was degraded when the autophagy started-up. Therefore, P62 protein may be a biomarker of autophagy. […] Moreover, LC3B protein is the subunit of the microtubule-related protein, which has different protein isomers. After the autophagy being started, LC3B I isomer will be transformed into LC3B II isomer. […] The results above indicate that PCH1152 may enhance autophagy, i.e. may inhibit abnormal “anti-autophagy” effect, thereby preventing the development of liver hepatocellular carcinoma. **p<0.01; ***p<0.001; unpaired t-test.

[17] = system: liver hepatocellular carcinoma cell line SNU-449; test: MTS assay cell growth, selectivity test; format: cell-based
[18] = system: Mahlavu liver hepatocellular carcinoma cell line subcutaneous tumor; test: Mouse xenograft model, oral PCH1152; format: in vivo, nude mice; conditions: 0.6 mg/mouse/day orally
Description: Seven days after subcutaneously injecting 1×10^6 Mahlavu liver hepatocellular carcinoma cell line into nude mice, PCH1152 (0.6 mg/mouse/day) began to be orally administered to the mice. After continuously administrating the drug orally for 45 days, the mice were sacrificed and their subcutaneous tumor were taken and analyzed.

[19] = system: human normal liver cell line THLE-2; test: MTS assay cell growth, selectivity test; format: cell-based
Source text: Preferable small molecule anticancer drugs must have higher selectivity to cancer cells, thereby reducing the toxicity and side effects in the normal cells and the dosage being taken. The selectivity of isothiocyanate structural modified compound of the present disclosure to liver hepatocellular carcinoma cells was examined by using human normal liver cell line THLE-2 and liver hepatocellular carcinoma cell line SNU-449. After treating liver hepatocellular carcinoma cell line and normal liver cell line by isothiocyanate structural modified compounds P1130 or PCH1152, the cell growth was evaluated by MTS assay.

[20] = long-term treatment in drinking water

Oc1ccc(CCN=C=S)cc1 [PCH1152]
effect on drug resistance in liver hepatocellular carcinoma [1]: reversing the drug resistance | expressions of USP22, ABCC1, ABCC2 and Twist [1]: decreased | expressions of cleaved Caspase-8 and PARP [1]: increased | LD50 [2]: 30 to 100 mg/kg | toxicity relative to existing anticancer drug, e.g. Taxotere [3]: comparable | expressions of ABCC2, Twist and Mcl-1 [4]: inhibition | expressions of ABCC2, Twist and Mcl-1 [5]: inhibition | region of the lipid accumulation in liver tissue ([6]; Oil Red): reduced significantly | region of fibrosis in liver tissue ([6]; Sirius Red): reduced significantly | GI50 [7]: 1540 nM | HBV-induced ROS increasement [8]: significantly reduce | structural stability in the drinking water of the mice [9]: higher than 98% | apoptosis of liver hepatocellular carcinoma cell line [10]: promote apoptosis | expressions of ABCC2, Mcl-1 and Twist [10]: inhibit the expressions | reduction of the incidence rate of liver tumor ([11]; compared to control group): more than 30% | age at which serum ALT increased to over 150 U/L in 50% of the mice ([11]; control group 19.5-month old): 21 month old | volume of the liver tumor ([11]; long-term treatment): significantly decrease | weight of the liver tumor ([11]; long-term treatment): significantly decrease | impact on daily food intake [11, 20]: did not have any significant impact | impact on daily water intake [11, 20]: did not have any significant impact | impact on weight [11, 20]: did not have any significant impact | apoptosis promotion and inhibition of ABCC2, Mcl-1, Twist in human normal liver cell line [12]: no such effect | Antimycin A-induced ROS increasement [13]: significantly reduce | GI50 ([14]; Homo sapiens, SNU-449, read-out: GI50, SNU-449 liver hepatocellular carcinoma cell line): 890 nM | increase of the ability of inhibiting the growth of the liver hepatocellular carcinoma cell line ([14]; compared to natural isothiocyanate compounds BITC or PEITC): 12 times | expression levels of cleaved caspase 8 and cleaved PARP [15]: significantly increased | effect on autophagy ([16]; liver tissue): significantly enhance autophagy | P62 protein in liver tissue (ratio of P62 and Hsc70) ([16]; treated mouse without carcinoma vs mouse developing carcinoma, western blot): significantly lower | ratio of LC3B II and LC3B I ([16]; vs control group, western blot): higher | cell viability of liver hepatocellular carcinoma cell line ([17]; MTS assay, SNU-449): substantially decreased | selectivity between liver hepatocellular carcinoma cell and normal liver cell ([17]; SNU-449 vs THLE-2, MTS assay): better cell growth inhibition selectivity | death of mice during the experiment ([18]; 45 days): No mouse dead | effect on daily food intake ([18]; 45 days): did not have any significant effect | effect on mouse weight ([18]; 45 days): did not have any significant effect | value of ALT in the mouse ([18]; 45 days): decrease | subcutaneous tumor volume ([18]; 45 days, vs control group): significantly smaller | expressions of ABCC1, USP22 and Mcl-1 in subcutaneous tumor ([18]; western blot): significant lower | effect on cell viability of human normal liver cell line [19]: not significant
